The values that follow come from US9572827B2, “Pharmaceutical composition for treating depression and method for preparation thereof” (Beijing Wonner Biotech, Ltd. Co., priority 2005, dated 2017).

The structures appear in SMILES notation.

Test [1] deals with ICR mice. The experiment in a line: Body temperature decrease experiment induced by resetpine. Type of test: in vivo. The note with it: 16.7 mg/kg, 2 times per day for 7 days. The text has this:
Experiment 2: Body Temperature Decrease Experiment Induced by Resetpine
Experimental animal: ICR mice
Experimental pharmaceuticals: The pharmaceutical of the Embodiment 3 of the present invention is provided by Beijing Wonner Biotech Ltd. Co., the depression-relieving pill is the product of Zhengzhou Yumi Medicines Co. Ltd., and Paroxitine (Paxil) is the product of Zhong Mei Tianjin Smith Kline pharmaceuticals Co. Ltd.
I. Group division: 1. Large dose of the Embodiment 3 medicine of the present invention (188.5 mg/kg), 2. middle dose of the Embodiment 3 medicine of the present invention (94.25 mg/kg), 3. small dose of the Embodiment 3 medicine of the present invention (47.125 mg/kg), 4. depression-reliving pill (650 mg/kg), 5. Paroxitine (16.7 mg/kg), and 6. physiological saline. (Ten (10) mice are in each group.)
II. Administration of drug: the abovementioned pharmaceutical water solutions are fed into the stomach according to 0.2 ml/10 g body weight, 2 times per day for a total of 7 days.
III. After the last administration of drug, the anal temperature (abbreviated as anal temp.) is determined, and then 2 mg resetpine per kg of the body weight is taken by intraperitoneal injection. After injecting the resetpine for 2, 3, 4, 5, 6 and 7 hours respectively, the anal temperature of the mice are determined.
The variance analysis calculation and the p-value compared with the control of the experimental result are calculated by using SPSS 11.5 analytic software.

The subject of test [2] is ICR mice. As to the kind of experiment: Mouse tail-hanging experiment. Type of test: in vivo. The note with it: 16.7 mg/kg, fed into the stomach 2 times per day for 7 days; 1 hour after last administration; last 5 of 6 minutes. As to the method: Experiment 1: “Mouse Tail-Hanging” Experiment Experimental animal: ICR mice Experimental pharmaceuticals: The pharmaceutical of the Embodiment 3 of the present invention is provided by Beijing Wonner Biotech Ltd. Co., the depression-relieving pill is the product of Zhengzhou Yumi Medicines Co. Ltd., and Paroxitine (Paxil) is the product of Zhong Mei Tianjin Smith Kline pharmaceuticals Co. Ltd. I. Group division: 1. Large dose of the Embodiment 3 medicine of the present invention (188.5 mg/kg), 2. middle dose of the Embodiment 3 medicine of the present invention (94.25 mg/kg), 3. small dose of the Embodiment 3 medicine of the present invention (47.125 mg/kg), 4. depression-reliving pill (650 mg/kg), 5. Paroxitine (16.7 mg/kg), and 6. physiological saline. (Ten (10) mice are in each group.) II. Administration of drug: The abovementioned pharmaceutical water solutions are fed into the stomach according to 0.2 ml/10 g body weight, 2 times per day for a total of 7 days. After 1 hour of the last administration of drug, the mouse tail-hanging experiment is proceeded. III. […] The time of non-movement of the mouse for the last 5 minutes is recorded. The variance analysis calculation and the p-value compared with the control of the experimental result are calculated by using SPSS 11.5 analytic software.

Regarding `Fc1ccc([C@@H]2CCNC[C@H]2COc2ccc3c(c2)OCO3)cc1` [Paroxitine], in the test with ICR mice [1] (2 hr after resetpine 2 mg/kg i.p.), the “Decreased anal temp. for 2 hr” value came out at 1.29 ± 0.47 °C. Also, the “Decreased anal temp. for 3 hr” value with ICR mice [1] (3 hr after resetpine 2 mg/kg i.p.) turned out to be 1.08 ± 0.35 °C. Further, the “Decreased anal temp. for 4 hr” value in the test with ICR mice [1] (4 hr after resetpine 2 mg/kg i.p.) amounted to 1.55 ± 0.64 °C. Also, the “Decreased anal temp. for 5 hr” value in the test with ICR mice [1] (5 hr after resetpine 2 mg/kg i.p.) stood at 1.44 ± 0.32 °C. For the same compound, the “Decreased anal temp. for 6 hr” value in the test with ICR mice [1] (6 hr after resetpine 2 mg/kg i.p.) is 2.51 ± 0.47 °C. The “Decreased anal temp. for 7 hr” value in the test on ICR mice [1] (7 hr after resetpine 2 mg/kg i.p.) turned out to be 2.76 ± 0.59 °C. Further, the Time of non-movement in the test with ICR mice [2] is 54.98 ± 46.92 s.
